Test results from US9925206B2, “Compositions and methods for treating bacterial infection” (priority 2015, dated 2018).
Like-named read-outs stand apart in the source and are kept apart here.

Columns and labels:
[1] = system: PA strain PAO1; experiment: Optical density growth/viability of PAO1 with A-NO2-, EDTA and/or tobramycin; assay type: cell-based, Pseudomonas aeruginosa; conditions: for growth of PAO1: 15 mM A-NO2- or 1 mM EDTA and 2 μg/ml TOBI
Protocol: FIG. 2 represent optical density measurements with control (untreated) bacteria arbitrarily set to 1.0 after 24 and 48 hr of growth at 37° C. in a standard rich medium known Luria broth (LB). Another experiment included the powerful aminoglycoside antibiotic, tobramycin (TOBI), that is commonly used for the treatment of PA CF/COPD lung infections (Moreau-Marquis S, et al. 2009. Am J Respir Cell Mol Biol 41:305-313; Dal Negro R, et al. 2008. Adv Ther 25:1019-1030). Nitrite was used at 25 mM (aerobic) or 15 mM (anaerobic); EDTA, 1.0 mM; TOBI, 2 μg/ml. Anaerobic LB was supplemented with 0.1 M potassium phosphate, pH 6.5 and 100 mM KNO3 as a terminal electron acceptor for anaerobic growth.

[2] = system: P. aeruginosa; experiment: Checkerboard assay of EDTA and antibiotics with and without acidified nitrite background; assay type: cell-based, Pseudomonas aeruginosa
Protocol: The antibiotic agents used in these studies included Tobramycin, Azithromycin, Colistin, Ticarcillin, Ciprofloxacin, Sulfametoxazole, Sulfamethazine, Tetracycline, Vancomycin, Imipenem, and Cefepime. […] Aerobic samples are incubated for 24 or 48 hours, and anaerobic samples are incubated for 48 hours.

[3] = system: P. aeruginosa biofilm; conditions: acidified nitrite 15, 25, 35 mM and EDTA 1, 5, 10 mM alone, aerobic and anaerobic, 24 hours treatment
Protocol: In order to determine the efficacy of the combination treatment for biofilm elimination, we employed a Crystal Violet assay. This allows us to determine the total biomass of the biofilm.
Crystal Violet stains biofilm mass which is a quantitative measure of biofilm density/thickness, but not necessarily viability (live/dead) of the biomass.
Cultures are grown for 24 hours aerobically or anaerobically, and then treated for 24 hours before assay.
P. aeruginosa was allowed to adhere to 96 well polystyrene 96 well microplates at incubate at 37° C. under aerobic vs. anaerobic conditions. The biofilms were washed with PBS and stained with 1% crystal violet (CV) for 15 minutes at room temperature. The CV was removed and the stained bacteria washed an additional 3 times prior to solubilization of the CV with 95% ethanol. The absorbance at 590 nm was monitored using a microplate reader.

[4] = system: P. aeruginosa (PAO1); conditions: 10 mM EDTA; 30 mM NaNO2; 10 mM EDTA-10 mM NaNO2
Protocol: BALB/c mice (8 per group) were infected with 1.7×10^6 P. aeruginosa (PAO1) in 1 mg/ml alginate.
The infected mice (n=8) were treated with either (i) 10 mM PBS, pH 6.5, (ii) 10 mM EDTA in PBS, pH 6.5, (iii) 30 mM NaNO2 in PBS, pH 6.5, or (iv) 10 mM EDTA-10 mM NaNO2 in PBS, pH 6.5. Agents were administered as inhaled therapies beginning at 12 hours post-inoculation and continued once daily.

[5] = cited from earlier work
[6] = system: PA; conditions: EDTA alone; cited from earlier work
[7] = system: mucoid FRD1 and non-mucoid FRD1/pmucA; conditions: anaerobic 15 mM NO2-, pH 6.5, after 5 days, cited from earlier work
[8] = system: mucoid FRD1; conditions: cited from earlier work
[9] = system: anaerobic FRD1 biofilms; conditions: 15 mM NO2-, cited from earlier work
[10] = system: non-mucoid FRD1/pmucA; conditions: cited from earlier work
[11] = system: FRD1/pmucA; conditions: mucA complemented strain, pH values between 6.0 and 7.5; cited from earlier work
[12] = system: non-mucoid strains, PAO1 and FRD1/pmucA; conditions: 15 mM A-NO2-, pH 6.5, anaerobic, 4 day incubation; cited from earlier work
[13] = system: mucoid PA CF strain FRD1; conditions: 15 mM A-NO2-, pH 6.5, anaerobic; cited from earlier work
[14] = system: FRD1; conditions: mucA mutant FRD1; cited from earlier work

NC[C@H]1O[C@H](O[C@H]2[C@H](O)[C@@H](O[C@H]3O[C@H](CO)[C@@H](O)[C@H](N)[C@H]3O)[C@H](N)C[C@@H]2N)[C@H](N)C[C@@H]1O [TOBI, tobramycin]
growth of PAO1 [1]: initially impaired
killing PA ([1]; anaerobic conditions, TOBI 2 μg/ml): not effective
bactericidal activity of the antibiotic when combined with NaNO2 and EDTA [2]: synergistically increases the bactericidal activity

O=C(O)CN(CCN(CC(=O)O)CC(=O)O)CC(=O)O [EDTA, ethylene diamine tetraacetic acid, reference compound]
biomass density/thickness of biofilm [3]: reduction of biomass density/thickness
average CFU/lung relative to control (PBS) [4]: reduced
growth of PAO1 [1]: initially impaired
toxicity in humans ([5]; in vivo): minimal toxicity
MICs of EDTA upon addition of acidified nitrite ([2]; nitrite background 7.5 mM): decreased
clinical course or airway microbial flora [6]: not modify the clinical course or the airway microbial flora

acidified nitrite [A-NO2^−]
CFU of mucoid FRD1 in mixed culture ([7]; three bacterial ratios): < 10^3 CFU/ml
viability of mucoid FRD1 in mixed culture [7]: lost viability
viability of non-mucoid FRD1/pmucA in mixed culture [7]: maintained viability
biomass density/thickness of biofilm [3]: reduction of biomass density/thickness
bacteria in mouse lungs after long-term treatment ([8]; 15 mM NO2- daily for 16 days): no bacteria detected
competitive index ([8]; FRD1, 10^6 intratracheally instilled into CD1 mouse airways, 6 days): ~0.2
decrease of bacteria in mouse lungs ([8]; pH 5.5, daily treatment): > 3 logs
decrease of bacteria in mouse lungs ([8]; pH 6.5, daily treatment): > 2 logs
death of biofilm bacteria ([9]; pH 6.5, 2 days): nearly complete death of biofilm bacteria
biofilm structure and cell viability relative to control biofilms ([9]; pH 7.5, 2 days): no difference in biofilm structure and cell viability
average CFU/lung relative to control (PBS) [4]: reduced
growth of PAO1 [1]: initially impaired
competitive index ([10]; complemented strain FRD1/pmucA, CD1 mouse airways, 6 days): ~1.0
decrease of bacteria in mouse lungs ([10]; pH 6.5 and pH 5.5): not
toxicity in humans ([5]; each agent separately): minimal toxicity
killing as a function of pH [11]: little or no killing
viability of non-mucoid strains [12]: remained viable
rate of killing of mucoid FRD1 [13]: ~90 % per day
killing as a function of pH [14]: more effectively at lower pH

CC[C@H]1OC(=O)[C@H](C)[C@@H](O[C@H]2C[C@@](C)(OC)[C@@H](O)[C@H](C)O2)[C@H](C)[C@@H](O[C@@H]2O[C@H](C)C[C@H](N(C)C)[C@H]2O)[C@](C)(O)C[C@@H](C)CN(C)[C@H](C)[C@@H](O)[C@]1(C)O [Azithromycin]
bactericidal activity of the antibiotic when combined with NaNO2 and EDTA [2]: synergistically increases the bactericidal activity
result in combination with EDTA/NO2- ([2]; compared with the other antibiotic agents): best results so far in combination
